Measurements reported in patent US8551937B2, “Peptide having an extending action for half-life of object peptide in plasma” (priority 2008, dated 2013).
Where a SMILES comes first, the peptide text is derived from it.

assay: Motilin immunoreactivity concentration in plasma, half-life after intravenous administration (Example 8); settings: male, SD, rat, in vivo, iv, 10 nmol/kg
Method: The experiment was carried out using rats into which polyethylene tube (PE-50 manufactured by Clay Adams) was inserted into thigh artery under an anesthetized condition with Nembutal. As to a test system, male SD strain rats (Nippon Charles River) of 7 weeks age were used where one group comprised 3 rats. Human motilin or a derivative thereof in a dose of 10 nmol/kg was administered into tail vein of the rat and the blood before the administration and until 60 minutes after the administration was periodically collected by a polyethylene tube inserted into the thigh artery. To the collected blood were added EDTA (manufactured by Dojin Laboratories) and aprotinin (manufactured by Bayer) as a stabilizer and an anti-coagulant, respectively and the plasma was separated therefrom by centrifugal separation. Motilin immunoreactivity concentration in plasma was measured by a competitive radioimmunoassay (RIA) (FIG. 8). At that time, a rabbit polyclonal antibody (#870623) which specifically recognizes the amino acid numbers 1 to 12 of native motilin shown by SEQ ID No: 102 was used as an antibody and, as a labeled compound, ^125I-[Tyr^7] human motilin was used.

Point of comparison: `CC[C@H](C)[C@H](NC(=O)[C@@H]1CCCN1C(=O)[C@@H](NC(=O)[C@@H](N)Cc1ccccc1)C(C)C)C(=O)N[C@@H](Cc1ccccc1)C(=O)N[C@H](C(=O)N[C@@H](Cc1ccc(O)cc1)C(=O)NCC(=O)N[C@@H](CCC(=O)O)C(=O)N[C@@H](CC(C)C)C(=O)N[C@@H](CCC(N)=O)C(=O)N[C@@H](CCCNC(=N)N)C(=O)N[C@H](C(=O)N[C@@H](CCC(N)=O)C(=O)N[C@@H](CCC(N)=O)C(=O)N[C@@H](CCCNC(=N)N)C(=O)N[C@@H](CCCCN)C(=O)N[C@@H](CCC(=O)O)C(=O)N[C@@H](Cc1ccccc1)C(=O)N[C@@H](CCCCN)C(=O)N[C@@H](CCCCN)C(=O)N1CCC[C@H]1C(=O)N1CCC[C@H]1C(=O)N[C@@H](C)C(=O)N[C@@H](CCCCN)C(=O)N[C@@H](CC(C)C)C(=O)N[C@@H](CCC(N)=O)C(=O)N1CCC[C@H]1C(=O)N[C@@H](CCCNC(=N)N)C(=O)O)C(C)C)[C@@H](C)O` [Chimeric motilin (O)(MG-18S/F)] (H-FVPIFTYGELQRVQQRKEFKKPPAKLQPR-OH; N-terminus and C-terminus assumed), half-life 7.73 min. Against it:
- CC[C@H](C)[C@H](NC(=O)[C@@H]1CCCN1C(=O)[C@@H](NC(=O)[C@@H](N)Cc1ccccc1)C(C)C)C(=O)N[C@@H](Cc1ccccc1)C(=O)N[C@H](C(=O)N[C@@H](Cc1ccc(O)cc1)C(=O)NCC(=O)N[C@@H](CCC(=O)O)C(=O)N[C@@H](CC(C)C)C(=O)N[C@@H](CCC(N)=O)C(=O)N[C@@H](CCCNC(=N)N)C(=O)N[C@H](C(=O)N[C@@H](CCC(N)=O)C(=O)N[C@@H](CCC(N)=O)C(=O)N[C@@H](CCCNC(=N)N)C(=O)N[C@@H](CCCCN)C(=O)N[C@@H](CCC(=O)O)C(=O)N[C@@H](CCCCN)C(=O)N[C@@H](CCCCN)C(=O)N1CCC[C@H]1C(=O)N1CCC[C@H]1C(=O)N[C@@H](C)C(=O)N[C@@H](CCCCN)C(=O)N[C@@H](CC(C)C)C(=O)N[C@@H](CCC(N)=O)C(=O)N1CCC[C@H]1C(=O)N[C@@H](CCCNC(=N)N)C(=O)O)C(C)C)[C@@H](C)O [Chimeric motilin (N)(MG-dS)] (H-FVPIFTYGELQRVQQRKEKKPPAKLQPR-OH; N-terminus and C-terminus assumed) — within 1.5-fold, 9.12 min
- CC[C@H](C)[C@H](NC(=O)[C@@H]1CCCN1C(=O)[C@@H](NC(=O)[C@@H](N)Cc1ccccc1)C(C)C)C(=O)N[C@@H](Cc1ccccc1)C(=O)N[C@H](C(=O)N[C@@H](Cc1ccc(O)cc1)C(=O)NCC(=O)N[C@@H](CCC(=O)O)C(=O)N[C@@H](CC(C)C)C(=O)N[C@@H](CCC(N)=O)C(=O)N[C@@H](CCCNC(=N)N)C(=O)N[C@H](C(=O)N[C@@H](CCC(N)=O)C(=O)N[C@@H](CCC(N)=O)C(=O)N[C@@H](CCCNC(=N)N)C(=O)N[C@@H](CCCCN)C(=O)N[C@@H](CCC(=O)O)C(=O)N[C@H](C(=O)N[C@@H](CCCCN)C(=O)N[C@@H](CCCCN)C(=O)N1CCC[C@H]1C(=O)N1CCC[C@H]1C(=O)N[C@@H](C)C(=O)N[C@@H](CCCCN)C(=O)N[C@@H](CC(C)C)C(=O)N[C@@H](CCC(N)=O)C(=O)N1CCC[C@H]1C(=O)N[C@@H](CCCNC(=N)N)C(=O)O)[C@@H](C)O)C(C)C)[C@@H](C)O [Chimeric motilin (P)(MG-18S/T)] (H-FVPIFTYGELQRVQQRKETKKPPAKLQPR-OH; N-terminus and C-terminus assumed) — within 1.5-fold, 9.67 min
